Source: US5639783A, “Ketone derivatives” (Mitsubishi Chemical Corporation, priority 1991, dated 1997)
Read-outs that look alike come from different tables or passages of the source.

Experiments:
m-calpain [1] = biological target: T1, m-calpain (Rattus norvegicus, UniProt Q07009); assay: Confirmation of reversible inhibitory activity (remaining m-calpain activity after incubation with inhibitor); assay type: biochemical; conditions: incubated 0 to 20 minutes at 10° C.; 10 μM-150 μM inhibitor solution (1 μl); FIGS. 1 to 3
T1 construct: m-calpain was purified from rat brain; from tissue; host or cells: rat brain
T1 sequence (Q07009 20-700 limits assumed): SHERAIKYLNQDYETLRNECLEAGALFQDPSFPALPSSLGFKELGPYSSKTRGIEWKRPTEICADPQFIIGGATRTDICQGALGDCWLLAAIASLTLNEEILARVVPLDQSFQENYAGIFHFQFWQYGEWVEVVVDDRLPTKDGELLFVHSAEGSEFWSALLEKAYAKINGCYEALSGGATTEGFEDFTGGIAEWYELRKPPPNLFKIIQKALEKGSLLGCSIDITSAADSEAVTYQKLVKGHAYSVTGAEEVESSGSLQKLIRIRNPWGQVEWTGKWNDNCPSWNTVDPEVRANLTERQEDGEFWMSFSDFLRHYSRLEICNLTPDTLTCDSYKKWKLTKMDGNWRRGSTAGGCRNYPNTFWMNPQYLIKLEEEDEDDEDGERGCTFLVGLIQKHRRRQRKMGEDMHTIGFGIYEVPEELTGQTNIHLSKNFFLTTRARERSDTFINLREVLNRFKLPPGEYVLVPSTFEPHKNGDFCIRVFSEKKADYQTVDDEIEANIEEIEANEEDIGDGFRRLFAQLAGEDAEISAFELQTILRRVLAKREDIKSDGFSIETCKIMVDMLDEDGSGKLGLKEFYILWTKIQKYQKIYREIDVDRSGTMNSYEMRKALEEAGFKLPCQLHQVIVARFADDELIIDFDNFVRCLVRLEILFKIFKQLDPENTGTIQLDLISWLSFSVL
T1 sequence (Q64537 1-270 partner): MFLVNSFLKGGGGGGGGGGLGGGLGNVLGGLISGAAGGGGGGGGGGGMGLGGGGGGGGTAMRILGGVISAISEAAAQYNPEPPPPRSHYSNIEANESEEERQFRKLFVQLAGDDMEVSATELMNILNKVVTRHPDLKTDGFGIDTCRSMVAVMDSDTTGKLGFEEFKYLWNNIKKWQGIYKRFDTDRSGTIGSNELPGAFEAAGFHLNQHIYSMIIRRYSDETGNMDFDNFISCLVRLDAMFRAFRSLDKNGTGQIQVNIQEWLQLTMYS
Method: According to the assay for inhibitory activity against calpain in Experiment 1, reversible inhibitory activity of the present compounds was confirmed as follows.
To an imidazole buffer (54 μl ) were added 500 mM CaCl2 solution (1 μl), 5 mM solution of the synthetic substrate described in the literature (4 μl), 10 μM-150 μM inhibitor solution (1 μl) and m-calpain solution (40 μl), and the mixture was incubated for 0 to 20 minutes at a temperature of 10° C. Then, 100 mM EDTA solution (5 μl) was added to inactivate the enzymatic activity. To the mixture was then added imidazole buffer (900 μl) followed by an addition of 5 mM synthetic substrate solution (40 μl) and 500 mM CaCl2 solution (10 μl), and the decomposition rate of the synthetic substrate was measured for 10 minutes at a temperature of 30° C. to determine the remaining activity of the enzyme.
The compounds of Examples 3, 113 and 190 were used as the inhibitor, and E-64 which is an irreversible inhibitor was also used for comparison.

cataract animal models = conditions: Investigative Ophthalmology & Visual Science, 32, p. 533 (1991); cited from earlier work
[2] = tested on: rat which has an enhanced bone destruction by administration of parathyroid hormone; conditions: cited from earlier work
papain = biological target: T2, papain (Carica papaya, UniProt P00784); assay: Thiol protease inhibitory activity, papain (P-3125, Sigma); assay type: biochemical
T2 sequence (P00784 134-345): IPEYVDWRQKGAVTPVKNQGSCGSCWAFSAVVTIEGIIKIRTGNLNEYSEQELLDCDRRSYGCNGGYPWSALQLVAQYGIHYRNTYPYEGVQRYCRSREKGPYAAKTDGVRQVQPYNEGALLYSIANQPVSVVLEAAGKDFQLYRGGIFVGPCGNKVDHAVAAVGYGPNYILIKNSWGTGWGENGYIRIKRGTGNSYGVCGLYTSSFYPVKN
Method: (§1) Inhibitory activity against papain (P-3125, Sigma) and cathepsin B (C-6286, Sigma) was assayed according to the method described in a literature [Biochemical Journal, 201, 189 (1982)]. Cathepsin L was purified from rat kidney according to the method in a literature [Journal of Biochemistry, 100, 35 (1986)], and the inhibitory activity against it was assayed in the same manner as described in the above literature for cathepsin B. Furthermore, m-calpain was purified from rat brain according to a known method [Journal of Biological Chemistry, 254, p. 3210 (1984)] and the inhibitory activity against it was assayed by a method described in a literature [Journal of Biological Chemistry, 259, 12489 (1984)]. It is evident from Tables 3 and 4 that the compounds of the present invention have a potent inhibitory activity against thiol proteases such as papain, cathepsin B, cathepsin L or m-calpain.

cathepsin B = biological target: T3, cathepsin B (Bos taurus, UniProt P07688); assay: Thiol protease inhibitory activity, cathepsin B (C-6286, Sigma); assay type: biochemical; conditions: Table 3
T3 construct: purchased Sigma C-6286
Method: as §1

cathepsin L = biological target: T4, cathepsin L (Rattus norvegicus, UniProt P07154); assay: Thiol protease inhibitory activity, cathepsin L purified from rat kidney; assay type: biochemical; conditions: Table 3
T4 construct: Cathepsin L was purified from rat kidney; from tissue; host or cells: rat kidney
Method: as §1

m-calpain [3] = biological target: T1, m-calpain; assay: Thiol protease inhibitory activity, m-calpain purified from rat brain; assay type: biochemical; conditions: Table 3
Outline: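 Papain and bovine cathepsin B assayed by a published method; cathepsin L purified from rat kidney and assayed in the same manner as cathepsin B. m-Calpain purified from rat brain and assayed by a separate published procedure.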

production of IgE = conditions: The Journal of Antibiotics, 42, p. 1362 (1989); cited from earlier work

T4 sequence (P07154 114-334): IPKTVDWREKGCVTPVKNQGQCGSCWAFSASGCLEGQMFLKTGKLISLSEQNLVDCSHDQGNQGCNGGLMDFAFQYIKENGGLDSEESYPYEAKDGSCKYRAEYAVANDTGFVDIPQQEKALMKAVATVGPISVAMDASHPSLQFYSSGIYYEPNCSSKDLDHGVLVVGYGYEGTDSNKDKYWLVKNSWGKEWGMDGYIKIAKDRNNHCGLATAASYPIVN

Row | Compound | remaining enzymatic activity after incubation with inhibitor (reversible inhibition) (m-calpain [1]) | effect on cataract (cataract animal models) | calcium concentration and hydroxyproline concentration in blood [2] | IC50 (papain) [µM] | IC50 (cathepsin B) [µM] | IC50 (cathepsin L) [µM] | IC50 (m-calpain [3]) [µM] | IC50 (papain; Table 3, read-out: IC50 papain) [µM] | production of IgE (production of IgE)
1 | CC(C)C[C@H](NC(=O)[C@H]1O[C@@H]1C(=O)O)C(=O)NCCCCNC(=N)N [E-64] | enzymatic activity rapidly disappeared in proportion to the incubation period | effective on cataract in animal models | decrease of calcium concentration and hydroxyproline concentration in blood |  |  |  |  |  | 
2 | CCCC[C@H](NC(=O)[C@H](CC(C)C)NC(=O)COc1ccccc1)C(=O)CSCc1ccco1 [3 (No. 82), (s)-1-furfurylthio-3-((s)-4-methyl-2-phenoxyacetylaminovalerylamino)-2-heptanone] | activity nearly equal to that of a control remained |  |  | 0.26 | 0.71 | 0.016 | 3.3 |  | 
3 | CC(C)C[C@H](NC(=O)OCc1ccccc1)C(=O)N[C@@H](Cc1ccccc1)C(=O)CN(C)C [190 (No. 465), (s)-3-((s)-2-benzyloxycarbonylamino-4-methylvalerylamino)-1-dimethylamino-4-phenyl-2-butanone] | activity nearly equal to that of a control remained |  |  |  | 1.6 | 2.8 | 7.3 | 40 | 
4 | CSCC(=O)[C@H](Cc1ccccc1)NC(=O)[C@H](CC(C)C)NC(=O)OCc1ccccc1 [Example 113, (s)-3-((s)-2-benzyloxycarbonylamino-4-methylvalerylamino)-1-methylthio-4-phenyl-2-butanone] | activity nearly equal to that of a control remained |  |  |  |  |  |  |  | 
5 | NC(N)=NCCCCNC(=O)[C@H](Cc1ccccc1)NC(=O)[C@H]1O[C@@H]1C(=O)O [Estatin A] |  |  | decrease of calcium concentration and hydroxyproline concentration in blood |  |  |  |  |  | specifically inhibit the production of IgE without affecting on the production of IgG
6 | CCCC[C@H](NC(=O)[C@H](CC(C)C)NC(=O)COC1CCCCC1)C(=O)CSCc1ccco1 [35 (No. 81), (s)-3-((s)-2-cyclohexyloxyacetylamino-4-methylvalerylamino)-1-furfurylthio-2-heptanone] |  |  |  |  | 0.7 | 1.1 | 8.6 | 0.21 | 
7 | CSCC(=O)[C@H](Cc1ccccc1)NC(=O)[C@H](CC(C)C)NC(=O)Cc1cccc2ccccc12 [120 (No. 256), (s)-3-[(s)-4-methyl-2-(1-naphtylacetylamino)valerylamino]-1-methylthio-4-phenyl-2-butanone] |  |  |  |  | 3.9 | 0.49 | 26 | 56 | 
8 | CC(C)C[C@H](NC(=O)COc1ccccc1)C(=O)N[C@@H](Cc1ccccc1)C(=O)CSCc1ccco1 [164 (No. 348), (s)-1-furfurylthio-3-((s)-4-methyl-2-phenoxyacetylaminovalerylamino)-4-phenyl-2-butanone] |  |  |  | 35 | 64 | 3.2 | 1.7 |  | 
9 | CCCC[C@H](NC(=O)[C@H](CC(C)C)NC(=O)COc1ccc(F)cc1)C(=O)CSCc1ccco1 [38 (No. 87), (s)-3-[(s)-2-(4-fluorophenoxyacetylamino)-4-methylvalerylamino]-1-furfurylthio-2-heptanone] |  |  |  |  | 0.62 | 0.72 | 5 | 0.42 | 
10 | CCCC[C@H](NC(=O)[C@H](CC(C)C)NC(=O)OCc1ccccc1F)C(=O)CSCc1ccco1 [23 (No. 49), (s)-3-[(s)-2-(2-fluorobenzyloxycarbonylamino)-4-methylvalerylamino]-1-furfurylthio-2-heptanone] |  |  |  |  | 3.7 | 1.1 | 6.4 | 22 | 
11 | CCCC[C@H](NC(=O)[C@H](CC(C)C)NC(=O)c1cccc2ccccc12)C(=O)CSCc1ccco1 [83 (No. 161), (s)-1-furfurylthio-3-[(s)-4-methyl-2-(1-naphtoylamino)valerylamino]-2-heptanone] |  |  |  |  | 5 | 0.4 | 12 | 47 | 
12 | CCCC[C@H](NC(=O)[C@H](CC(C)C)NC(=O)c1ccccc1)C(=O)CSCc1ccco1 [54 (No. 116), (s)-3-((s)-2-benzoylamino-4-methylvalerylamino)-1-furfurylthio-2-heptanone] |  |  |  |  | 0.88 | 0.25 | 14 | 0.38 | 
13 | CC(C)C[C@H](NC(=O)Cc1ccc2ccccc2c1)C(=O)N[C@@H](Cc1ccccc1)C(=O)CSCc1ccco1 [160 (No. 334), (s)-1-furfurylthio-3-[(s)-4-methyl-2-(2-naphtylacetylamino)valerylamino]-4-phenyl-2-butanone] |  |  |  |  | 3.3 | 6.6 | 28 | 35 | 
14 | CCCC[C@H](NC(=O)[C@H](CC(C)C)NC(=O)COc1ccc(Cl)cc1Cl)C(=O)CSCc1ccco1 [42 (No. 92), (s)-3-[(s)-2-(2,4-dichlorophenoxyacetylamino)-4-methylvalerylamino]-1-furfurylthio-2-heptanone] |  |  |  |  | 1.9 | 0.74 | 23 | 4.5 | 
15 | CC(C)C[C@H](NC(=O)COc1ccccc1)C(=O)NC(Cc1cccc2ccccc12)C(=O)CSCc1ccco1 (stereo partly drawn) [209 (No. 555), l-furfurylthio-3-((s)-4-methyl-2-phenoxyacetylaminovalerylamino)-4-(1-naphtyl)-2-butanone] |  |  |  |  | 6.5 | 1.5 | 19 | 9 | 
16 | CC(C)C[C@H](NC(=O)OCc1ccccc1)C(=O)N[C@@H](CCC(=O)O)C(=O)CSCc1ccco1 [217 (No. 600), (s)-4-((s)-2-benzyloxycarbonylamino-4-methylvalerylamino)-6-furfurylthio-5-oxohexanoic Acid] |  |  |  |  | 2.5 | 11 | 19 | 26 | 
